Paper PMC12271471, “Direct synthesis of mycophenolic acid aryl esters with antioxidant and antiproliferative properties” (Scientific Reports, 2025)

Assays:
T-Jurkat cells = experiment: VPD450 proliferation test (flow cytometry) on T-Jurkat cells; format: cell-based, human; conditions: for EC50: Homo sapiens, T-Jurkat, 48 h, mean ± SD; for SI selectivity index T-Jurkat (IC50/EC50): ratio between IC50 (XTT) and EC50 (VPD450) on T-Jurkat cell line; for IS internal selectivity (EC50 PBMCs / EC50 T-Jurkat): ratio between VPD450 EC50 values for PBMCs and T-Jurkat cell line
Method: These values indicate the concentration of any compound at which proliferation of PBMCs (healthy cells), and T-Jurkat cells (T-cell leukemia), is inhibited by 50% compared to the control. Cells were treated with the compounds for 72 h (PBMCs) or 48 h (T-Jurkat), followed by a […] VPD450 test. The results are presented in ESI Fig. S3 as proliferation curves concerning concentration.
ESI Figure 3. Concentration-dependent change in proliferation under the treatment of ester derivatives of MPA. (A) VPD450-labelled PBMCs were cultured in the presence of different concentrations (100; 50; 25; 10; 1; 0.1, and 0.01 μM) of MPA, MMF, and ester derivatives, and stimulated with magnetic beads coated with anti-CD3 and anti-CD28 antibodies for 72 hours. (B) VPD450-labelled T-Jurkat cells were cultured in the presence of different concentrations (100; 10; 1; 0.1 and 0.01 μM) of MPA and ester derivatives for 48 hours. The plots were separated based on the type of ester derivative (P or MP). Cell proliferation was analyzed using flow cytometry. The results are expressed […]
(1 picture or pasted object on this page, not shown here) […]
inhibited cell viability by more than 50%. Each experiment was conducted in triplicate, and the final […]
VPD450 dye-based in vitro cell proliferation test
PBMCs and T-Jurkat cells were washed twice with warm PBS (37°C), re-suspended in fresh PBS at a final concentration of 10-30∙10^6 cells/ml, and labelled with 1 µl of VPD450 (BD Biosciences) at 37°C for 15 minutes, with vortexing every 5 minutes to ensure uniform staining. Subsequently, cells were washed with PBS, then with the complete medium (X-VIVO20 for PBMCs and RPMI-1640 for T-Jurkat cells), next re-suspended in fresh complete medium and seeded into 96-well plates at a concentration of 1∙10^6 cells per well. PBMCs were additionally stimulated with magnetic beads coated with anti-CD3 and anti-CD28 antibodies (Invitrogen) at a 2:1 cell-to-bead ratio. To the experimental wells, 100 µl of the MPA derivatives were added to achieve final concentrations of 50, 25, 10, 5, 1, 0.1, and 0.01 µM. In parallel, control wells containing stained but unstimulated cells and stained, stimulated cells were prepared at the same concentration. Cell proliferation was analyzed using an LSRFortessa flow cytometer (BD Biosciences) and Kaluza C Flow Cytometry Analysis Software (Beckman Coulter). […]
Statistical analysis was conducted using GraphPad Prism 9 (GraphPad Software Inc).
Differences between MMF, MPA and its new derivatives were assessed using a two-tailed unpaired Student’s t-test, with statistical significance defined as p < 0.05. EC50 and IC50 values were determined by fitting data to a four-parameter non-linear regression model in GraphPad Prism 9. Statistical significance was evaluated using the t-test.

[1] = DPPH radical scavenging test (colorimetric); conditions: concentration scavenging 50% of DPPH radicals; 10 min, room temperature, 517 nm; mean ± SD
Method: Antioxidative properties of the obtained MPA derivatives were assessed chemically using a colorimetric DPPH test. The IC50 value represents the scavenging activity, defined as the concentration of a compound required to scavenge 50% of DPPH radicals.
Briefly, 400 µL solution of each synthesized compound with different concentrations (20–1000 µg/mL) was added to 1.6 mL DPPH solution (100 µmol/L). After shaking, the mixture was incubated at room temperature in the dark for 10 min, and then the absorbance was measured at 517 nm. The %Scavenging activity was calculated by using the formula: […]
The scavenging activity was expressed as IC50 value, defined as the concentration (mM) of compound required for scavenging DPPH radicals by 50%. IC50 values were determined by linear regression analysis using at least three different concentrations in duplicate.
Three different concentrations were prepared for each sample, while each one was analyzed in duplicate. […] The statistical analysis was performed using Tukey’s HSD test (p < 0.05). The statistical software Statistica 10 software (StatSoft Inc., Tulsa, OK, USA) was implemented for this analysis.

| SMILES | EC50 (T-Jurkat cells) [µM] | SI selectivity index T-Jurkat (IC50/EC50) (T-Jurkat cells) | IS internal selectivity (EC50 PBMCs / EC50 T-Jurkat) (T-Jurkat cells) | IC50 [1] [µM] |
| --- | --- | --- | --- | --- |
| COc1c(C)c2c(c(O)c1C/C=C(\C)CCC(=O)OCCN1CCOCC1)C(=O)OC2 [MMF, mycophenolate mofetil, reference compound] | 0.609 ± 0.03 | 1.216 | 1.704 | 19000 ± 279 |
| COc1ccccc1OC(=O)CC/C(C)=C/Cc1c(O)c2c(c(C)c1OC)COC2=O [MP1] | 0.78 ± 0.034 | 1.259 | 1.418 | 23800 ± 411 |
| COc1cccc(OC)c1OC(=O)CC/C(C)=C/Cc1c(O)c2c(c(C)c1OC)COC2=O [MP2] | 2.64 ± 0.035 | 0.662 | 2.042 | 3720 ± 230 |
| COc1cc(C=O)cc(OC)c1OC(=O)CC/C(C)=C/Cc1c(O)c2c(c(C)c1OC)COC2=O [MP3] | 4.458 ± 0.04 | 0.997 | 3.083 | 12200 ± 252 |
| COc1cc(C=O)ccc1OC(=O)CC/C(C)=C/Cc1c(O)c2c(c(C)c1OC)COC2=O [MP4] | 7.509 ± 0.036 | 0.710 | 0.386 | 6400 ± 311 |
| COC(=O)/C=C/c1ccc(OC(=O)CC/C(C)=C/Cc2c(O)c3c(c(C)c2OC)COC3=O)c(OC)c1 [MP7] | 4.923 ± 0.034 | 0.286 | 1.571 | 3640 ± 113 |
| C=CCc1ccc(OC(=O)CC/C(C)=C/Cc2c(O)c3c(c(C)c2OC)COC3=O)c(OC)c1 [MP8] | 1.74 ± 0.023 | 0.983 | 0.665 | 6900 ± 225 |
| C/C=C/c1ccc(OC(=O)CC/C(C)=C/Cc2c(O)c3c(c(C)c2OC)COC3=O)c(OC)c1 [MP9] | 1.84 ± 0.043 | 1.070 | 1.283 | 373 ± 41 |
| COc1c(C)c2c(c(O)c1C/C=C(\C)CCC(=O)O)C(=O)OC2 [MPA, Mycophenolic acid] | 0.924 ± 0.034 | 0.570 | 1.249 | 15730 ± 144 |
| COc1c(C)c2c(c(O)c1C/C=C(\C)CCC(=O)Oc1ccc3c(c1)OCO3)C(=O)OC2 [P1] | 2.01 ± 0.042 | 0.533 | 0.573 | 43570 ± 380 |
| COc1c(C)c2c(c(O)c1C/C=C(\C)CCC(=O)Oc1cc(C)ccc1C(C)C)C(=O)OC2 [P2] | 4.477 ± 0.033 | 0.552 | 0.317 | 11670 ± 113 |
| COC(=O)/C=C/c1ccccc1OC(=O)CC/C(C)=C/Cc1c(O)c2c(c(C)c1OC)COC2=O [P4] | 3.53 ± 0.045 | 0.470 | 1.380 | 308 ± 31 |
| COc1c(C)c2c(c(O)c1C/C=C(\C)CCC(=O)Oc1ccc(C=O)cc1)C(=O)OC2 [P5] | 2.357 ± 0.023 | 0.671 | 0.703 | 28200 ± 357 |
| COc1c(C)c2c(c(O)c1C/C=C(\C)CCC(=O)Oc1ccc(CCC(C)=O)cc1)C(=O)OC2 [P7] | 2.23 ± 0.044 | 1.083 | 0.470 | 124 |
